Entries after “also recorded” stand apart in the source; their conditions may differ. Values belong to the molecule of their own block, whether it stands above or below them.
Assays:
Type in all cases: physicochemical
[1] = Stability test (appearance, related substances, XRPD) under high humidity, 60° C. and light
Protocol: Experiment Method: The test product was placed under high humidity (25° C./RH 92.5% or 40° C./RH 75%) conditions or under 60° C. conditions for 10 days, and samples were taken on the 5th and 10th days, respectively; and placed under light (4500 LX±500 LX) conditions for 10 days, a sample was taken on the 10th day and tested for related substances and XRPD, and the same was compared with the sample of day 0.
Relevant substances: Measured according to Chinese Pharmacopoeia, 2015 edition, Volume II, Appendix V D High Performance Liquid Chromatography.
XRPD measurement: Measured according to Chinese Pharmacopoeia, 2015 edition, Volume IV, 0451 X-Ray Diffraction Method.
The test product was placed under 25° C./RH 92.5% or under 60° C. conditions for 10 days, and was sampled on the 5th and 10th days respectively; the test product was placed under light (4500 LX±500 LX) or 40° C./RH 75% conditions for 10 days, sampled on the 10th day and tested for related substances and XRPD, and compared with the sample of day 0.
Related substances: Measured according to Chinese Pharmacopoeia, 2015 edition, Volume II, Appendix V D High Performance Liquid Chromatography.
XRPD Measurement: Chinese Pharmacopoeia, 2015 edition, Volume IV, 0451 X-Ray Diffraction Method.

Hygroscopicity test = conditions: Chinese Pharmacopoeia 2015, 9103
Description: Measurement method: Measured according to Chinese Pharmacopoeia, 2015 edition, Volume IV, General Principles, 9103 Guiding Principles for Hygroscopicity Test on Drugs.

[2] = Compressibility experiment (tablet hardness vs tablet thickness); conditions: for Maximum tablet hardness: as tablet thickness decreases (tableting force increases)
Description: The change of tablet hardness with tablet thickness was investigated, and compressibility was compared.

Tablet disintegration = conditions: 40 mg tablet with adjuvants
Description: (§1) The disintegration and dissolution was investigated under the following conditions.
(§2) Dissolution Method: Paddle method (Chinese Pharmacopoeia, 2015 edition, Volume IV, 0931 Dissolution and Release Measurement methods, Method II); medium: 0.2% SDS aqueous solution; and rotation speed: 50 r/min.

[3] = Tablet dissolution, paddle method; conditions: 0.2% SDS aqueous solution, 50 r/min
Description: as §1, §2

[4] = Particle size measurement (laser particle size analyzer); conditions: water dispersant, Tween 80
Protocol: An appropriate amount of the test product was taken, 0.1 mL of a 1% Tween 80 solution was added to reduce the surface tension, and water was used as a dispersant to prepare a uniformly dispersed suspension. The same was placed in a sample dispersion device, the stirring speed was adjusted to 2000 rpm, ultrasonication was carried out for 2 min at an ultrasonic frequency of 7 KHz, and measurement was carried out.

Appearance ([1]; 0 day): Off-white | Related substance (%) ([1]; 0 day): 0.14% | XRPD (solid form found) ([1]; 0 day): Amorphous | Appearance ([1]; 25° C./RH 92.5% Open, 5 day): Off-white | Related substance (%) ([1]; 25° C./RH 92.5% Open, 5 day): 0.14% | XRPD (solid form found) ([1]; 25° C./RH 92.5% Open, 5 day): Amorphous | Appearance ([1]; 25° C./RH 92.5% Open, 10 day): Off-white | Related substance (%) ([1]; 25° C./RH 92.5% Open, 10 day): 0.19% | XRPD (solid form found) ([1]; 25° C./RH 92.5% Open, 10 day): Amorphous | Appearance ([1]; 40° C./RH 75% Open, 10 day): Off-white | Related substance (%) ([1]; 40° C./RH 75% Open, 10 day): 0.19% | XRPD (solid form found) ([1]; 40° C./RH 75% Open, 10 day): Amorphous | Appearance ([1]; 60° C. Open, 5 day): Light yellow | Related substance (%) ([1]; 60° C. Open, 5 day): 0.67% | XRPD (solid form found) ([1]; 60° C. Open, 5 day): Amorphous | Appearance ([1]; 60° C. Open, 10 day): Light yellow | Related substance (%) ([1]; 60° C. Open, 10 day): 1.15% | XRPD (solid form found) ([1]; 60° C. Open, 10 day): Amorphous | Appearance ([1]; Light (4500 LX±500 LX), 10 day): Light yellow | Related substance (%) ([1]; Light (4500 LX±500 LX), 10 day): 10.54% | XRPD (solid form found) ([1]; Light (4500 LX±500 LX), 10 day): Amorphous | Related substance (%) ([1]; Light (4500 LX±500 LX), 10 day, listed as amorphous form): up to 10.54% | Hygroscopicity results (Hygroscopicity test): Moisture absorbability | Moisture absorption weight gain (%) (Hygroscopicity test): 6.3% | Hardness of tablet ([2]; Tablet thickness 1.8 mm, listed as amorphous form): 2.75 kg | Hardness of tablet ([2]; Tablet thickness 2.0 mm, listed as amorphous form): 0.59 kg | Hardness of tablet ([2]; Tablet thickness 2.4 mm, listed as amorphous form): 0.72 kg | Maximum tablet hardness ([2]; listed as amorphous form): about 2.75 kg | Disintegration behaviour (observation) (Tablet disintegration): Absorbed water | Disintegration time (Tablet disintegration; listed as Amorphous form): >30 min | Cumulative dissolution (%) ([3]; 5 min, listed as Amorphous form): 1.0% | Cumulative dissolution (%) ([3]; 10 min, listed as Amorphous form): 2.7% | Cumulative dissolution (%) ([3]; 15 min, listed as Amorphous form): 4.6% | Cumulative dissolution (%) ([3]; 30 min, listed as Amorphous form): 9.2% | Cumulative dissolution (%) ([3]; 45 min, listed as Amorphous form): 13.2% | Cumulative dissolution (%) ([3]; 60 min, listed as Amorphous form): 18.5%
Structure (SMILES): CCN1CCN(Cc2cnc(Nc3cc(-c4cc(F)c5nc(C)n(C(C)C)c5c4)c(F)cn3)nc2)CC1 [Compound of formula (I), 5-((4-ethylpiperazin-1-yl)methyl)-N-(5-fluoro-4-(4-fluoro-1-isopropyl-2-methyl-1H-benzo[d]imidazol-6-yl)pyridin-2-yl)pyrimidin-2-amine]
Behaviour during tabletting (observation) ([2]; during the process of tabletting, listed as amorphous form): prone to wall sticking; also recorded: prone to capping

Appearance ([1]; 0 day): Off-white | Related substance (%) ([1]; 0 day): 0.11% | XRPD (solid form found) ([1]; 0 day): Crystal form A | Appearance ([1]; 25° C./RH 92.5% Open, 5 day): Off-white | Related substance (%) ([1]; 25° C./RH 92.5% Open, 5 day): 0.09% | XRPD (solid form found) ([1]; 25° C./RH 92.5% Open, 5 day): Crystal form A | Appearance ([1]; 25° C./RH 92.5% Open, 10 day): Off-white | Related substance (%) ([1]; 25° C./RH 92.5% Open, 10 day): 0.09% | XRPD (solid form found) ([1]; 25° C./RH 92.5% Open, 10 day): Crystal form A | Appearance ([1]; 40° C./RH 75% Closed, 5 day): Off-white | Related substance (%) ([1]; 40° C./RH 75% Closed, 5 day): 0.10% | XRPD (solid form found) ([1]; 40° C./RH 75% Closed, 5 day): Crystal form A | Appearance ([1]; 40° C./RH 75% Closed, 10 day): Off-white | Related substance (%) ([1]; 40° C./RH 75% Closed, 10 day): 0.20% | XRPD (solid form found) ([1]; 40° C./RH 75% Closed, 10 day): Crystal form A | Appearance ([1]; 40° C./RH 75% Open, 5 day): Off-white | Related substance (%) ([1]; 40° C./RH 75% Open, 5 day): 0.10% | XRPD (solid form found) ([1]; 40° C./RH 75% Open, 5 day): Crystal form A | Appearance ([1]; 40° C./RH 75% Open, 10 day): Off-white | Related substance (%) ([1]; 40° C./RH 75% Open, 10 day): 0.20% | XRPD (solid form found) ([1]; 40° C./RH 75% Open, 10 day): Crystal form A | Appearance ([1]; 60° C. Closed, 5 day): Off-white | Related substance (%) ([1]; 60° C. Closed, 5 day): 0.09% | XRPD (solid form found) ([1]; 60° C. Closed, 5 day): Crystal form A | Appearance ([1]; 60° C. Closed, 10 day): Off-white | Related substance (%) ([1]; 60° C. Closed, 10 day): 0.11% | XRPD (solid form found) ([1]; 60° C. Closed, 10 day): Crystal form A | Appearance ([1]; 60° C. Open, 5 day): Off-white | Related substance (%) ([1]; 60° C. Open, 5 day): 0.11% | XRPD (solid form found) ([1]; 60° C. Open, 5 day): Crystal form A | Appearance ([1]; 60° C. Open, 10 day): Off-white | Related substance (%) ([1]; 60° C. Open, 10 day): 0.14% | XRPD (solid form found) ([1]; 60° C. Open, 10 day): Crystal form A | Change of properties (appearance, related substances, XRPD) ([1]; 60° C. or light conditions, 10 days): no obvious change | Appearance ([1]; Light (4500 LX±500 LX), 10 day): Off-white | Related substance (%) ([1]; Light (4500 LX±500 LX), 10 day): 0.09% | XRPD (solid form found) ([1]; Light (4500 LX±500 LX), 10 day): Crystal form A | Hygroscopicity results (Hygroscopicity test): No or almost no moisture | Moisture absorption weight gain (%) (Hygroscopicity test): 0.003% | Particle size distribution, 10% of the sample [4]: ≤ 2.501 μm | Particle size distribution, 50% of the sample [4]: ≤ 10.432 μm | Particle size distribution, 90% of the sample [4]: ≤ 59.852 μm | Hardness of tablet ([2]; Tablet thickness 0.9 mm, "/" means no tablet can be formed at that thickness): 2.97 kg | Hardness of tablet ([2]; Tablet thickness 1.3 mm, "/" means no tablet can be formed at that thickness): 3.50 kg | Hardness of tablet ([2]; Tablet thickness 1.8 mm): 5.40 kg | Hardness of tablet ([2]; Tablet thickness 2.0 mm): 1.76 kg | Hardness of tablet ([2]; Tablet thickness 2.4 mm): 0 kg | Maximum tablet hardness [2]: about 5.4 kg | Disintegration time (Tablet disintegration): 4 min | Time to complete dissolution [3]: ≤ 60 min | Cumulative dissolution (%) ([3]; 5 min): 69.2% | Cumulative dissolution (%) ([3]; 10 min): 90.7% | Cumulative dissolution (%) ([3]; 15 min): 93.8% | Cumulative dissolution (%) ([3]; 30 min): 96.6% | Cumulative dissolution (%) ([3]; 45 min): 97.5% | Cumulative dissolution (%) ([3]; 60 min): 97.9%
Structure (SMILES): CCN1CCN(Cc2cnc(Nc3cc(-c4cc(F)c5nc(C)n(C(C)C)c5c4)c(F)cn3)nc2)CC1 [Crystal form A of the compound of formula (I)] [5-((4-ethylpiperazin-1-yl)methyl)-N-(5-fluoro-4-(4-fluoro-1-isopropyl-2-methyl-1H-benzo[d]imidazol-6-yl)pyridin-2-yl)pyrimidin-2-amine]

— patent US11299474B2, “Crystal form targeting CDK4/6 kinase inhibitor” (XUANZHU BIOPHARMACEUTICAL CO., LTD., priority 2018, dated 2022)
